Measured values published in patent publication US8017350B2, “Glimepiride- and insulin-induced glycosylphosphatidylinositol-specific phospholipase C regulation” (Sanofi-Aventis Deutschland GmbH, priority 2004, dated 2011).
Read-outs that look alike come from different tables or passages of the source.

How the values were obtained:
[1] = stability of compound 3; type: physicochemical
[2] = test system: trypanosomal GPI-PLC (T. brucei); conditions: literature; cited from earlier work
[3] = test system: pp59Lyn and Gce1 interaction with caveolin-1 in rat adipocytes; assay: dissociation of signaling proteins from caveolin (caveolin-1 immunoprecipitates of hcDIGs); type: cell-based; conditions: solubilized hcDIGs; FIG. 6
Procedure: Solubilized DIGs (see above, 5-20 μg protein) were precleared by incubation with protein A/G-Sepharose and subsequent centrifugation (10,000×g, 5 min). The supernatant was incubated with anti-caveolin-1 antibodies (1:1000) preadsorbed on protein A/G-Sepharose in 1 ml of 10 mM Tris/HCl (pH 7.4), 150 mM NaCl, 1% TX-100 for 1 h at 4° C. The immune complexes were washed twice with the same buffer and then twice with buffer lacking TX-100 and finally subjected to SDS-PAGE performed in the absence of β-mercaptoethanol. The recovery of immunoprecipitated caveolin was normalized by homologous immunoblotting with anti-caveolin antibodies of the same blot following stripping of the membrane.
Polypeptides separated by SDS-PAGE were transferred to polyvinylidene difluoride membranes using the semidry procedure as described in “Müller, G. et al., (2001) Mol. Cell. Biol. 21: 4553-4567”. Washed membranes were incubated with anti-caveolin-1 (1:2000), anti-pp59^Lyn (1:1250), anti-aP (1:500), anti-5′-Nuc (1:750) and anti-IRS-1 (1:2000) antibodies for 4 h at 15° C. Washed membranes were incubated with horseradish peroxidase-coupled secondary goat anti-mouse (1:2000) or goat anti-rabbit IgG (1:4000) antibodies. Labeled proteins were visualized by enhanced chemiluminescence.
FIG. 6: Effect of GPI-2350 on the glimepiride/insulin-induced dissociation of signaling proteins from caveolin. Isolated rat adipocytes were treated (5 min, 37° C.) without or with GPI-2350 (left panels, 50 μM; right panels, increasing conc.) and then incubated (120 min, 37° C.) in the absence or presence of insulin (10 nM) or glimepiride (20 μM). hcDIGs were prepared from the adipocytes and then solubilized. Caveolin-1 immunoprecipitates prepared from the solubilized hcDIGs were assayed for the presence of pp59^Lyn and Gce1 by immunoblotting and photoaffinity-labeling, respectively. […]

[4] = cited from earlier work
[5] = test system: isolated rat adipocytes; assay: isoproterenol-induced lipolysis measured as release of NBD-FA; type: cell-based
Procedure: Electroporation was performed as described in “Müller, G. et al., (2000) Mol. Cell. Biol. 20: 4708-4723”. Lipolysis was determined as release of glycerol or fluorescent NBD-FA from prelabeled and isoproterenol-stimulated adipocytes as described in “Müller, G. et al., (2003) Biochimie 85: 1245-1256”. Gce1 was detected by photolabeling of solubilized plasma membranes or hc/lcDIGs (10-50 μg protein) with 8-N3—[^32P]cAMP and subsequent phosphorimaging as described in “Müller, G. et al., (1994) Biochemistry 33: 12149-12159”. 5′-Nuc, aP and AChE activities were measured according to “Eliakim, R. et al., (1990) Biochim. Biophys. Acta 1355: 293-302”. Protein was determined using the BCA protein determination kit from Pierce (Rockford, Ill.) and BSA as calibration standard. SDS-PAGE was performed using precast gels (Novex, San Diego, Calif.; 10% Bis-Tris resolving gel, morpholinopropanesulfonic acid-SDS running buffer). Lumiimages were evaluated on a LumiImager using LumiImager software (Roche Diagnostics). Phosphor- and fluorescence images were processed and quantified using the Storm 860 PhosphorImager system (Molecular Dynamics, Gelsenkirchen, Germany). Figures were constructed using the ADOBE PHOTOSHOP software (Adobe Systems, Mountain View, Calif.).
FIG. 9: Isolated rat adipocytes were labeled with 0.5 mM NBD-FA (60 min, 37° C.), washed and then incubated (5 min, 37° C.) in the absence (Panels B, D) or presence of GPI-2350 (50 μM; Panels A, C) prior to challenge with increasing concentrations of glimepiride (Panels A, B) or insulin (Panels C, D). After further incubation (120 min, 37° C.) without or with isoproterenol (1 μM) as indicated, total cell suspensions were extracted with chloroform/heptane/methanol/0.1 N HCl (3/3/2/1, by vol.). The organic phases were analyzed by thin layer chromatography (diethylether/petrolether/acetic acid 78/22/1, by vol.) and fluorescence imaging in parallel with NBD-FA as marker. A typical experiment with 2 independent labelings and incubations is shown repeated once with similar results. TAG, triacylglycerol.

[6] = test system: GPI-proteins 5′-Nuc, Gce1 and aP in isolated rat adipocytes; assay: localization of lipolytically cleaved and uncleaved GPI-proteins at hcDIGs, IcDIGs and total plasma membranes (TX-114 partitioning); type: cell-based; conditions: GPI-2350 50 μM, insulin 10 nM, glimepiride 20 μM; for 5′-Nuc amphiph IcDIGs / 5′-Nuc hydroph. IcDIGs / 5′-Nuc hydroph. hcDIGs / Gce1 amphiph IcDIGs / Gce1 hydroph. IcDIGs / Gce1 hydroph. hcDIGs / aP amphiph IcDIGs / aP hydroph. IcDIGs / aP hydroph. hcDIGs: amphiphilic version in hcDIGs of basal adipocytes set at 100; for 5′-Nuc hydroph. PM / Gce1 hydroph. PM / aP hydroph. PM: amphiphilic version in total plasma membranes of basal adipocytes set at 100; for 5′-Nuc amphiph hcDIGs / Gce1 amphiph hcDIGs / aP amphiph hcDIGs: basal set at 100

Compound	inhibition in words [2]	induced maximal losses of pp59Lyn and Gce1 from caveolin-1 immunoprecipitates [3]	5′-Nuc amphiph IcDIGs [6] [arb. units]	5′-Nuc hydroph. IcDIGs [6] [arb. units]	5′-Nuc hydroph. hcDIGs [6] [arb. units]	Gce1 amphiph IcDIGs [6] [arb. units]	Gce1 hydroph. IcDIGs [6] [arb. units]	Gce1 hydroph. hcDIGs [6] [arb. units]	aP amphiph IcDIGs [6] [arb. units]	aP hydroph. IcDIGs [6] [arb. units]	aP hydroph. hcDIGs [6] [arb. units]	5′-Nuc hydroph. PM [6] [arb. units]	Gce1 hydroph. PM [6] [arb. units]	aP hydroph. PM [6] [arb. units]	5′-Nuc amphiph hcDIGs [6] [arb. units]	Gce1 amphiph hcDIGs [6] [arb. units]	aP amphiph hcDIGs [6] [arb. units]	further results
CCCCCCCCCCCCP1(=O)OC2C(O)C(O)C(O)C(O)C2O1 (racemic) [GPI-2350, myo-inositol-1,2-cyclo-dodecylphosphonic acid]																		stability as dried amorphous solid ([1]; 4° C.): dried amorphous solid for years; stability in methanol ([1]; methanol): stable in methanol for days
CCCCCCCCCCCCP(=O)(O)O[C@@H]1[C@H](O)[C@H](O)[C@@H](O)[C@H](O)[C@H]1O[C@H]1O[C@H](CO)[C@@H](O)[C@H](O)[C@H]1N [GMI-1-dodecylphosphonate]	considerably more inhibitory than the corresponding hexyl derivative																	
CCC1=C(C)CN(C(=O)NCCc2ccc(S(=O)(=O)NC(=O)N[C@H]3CC[C@H](C)CC3)cc2)C1=O [Glimepiride, glimepiride]		75-85%	59 ± 9	9 ± 3	48 ± 10	79 ± 15	12 ± 5	69 ± 9	49 ± 8	10 ± 2	88 ± 19	19 ± 5	40 ± 11	54 ± 12	35 ± 10	25 ± 10	10 ± 3	time of greatest blood glucose lowering effects after the dose ([4]; human, in vivo): ≤ 4 h; hypoglycaemia, patients ([4]; receiving concomitant insulin for 6 months): ≤ 50%; IC50 ([5]; Rattus norvegicus, Adipocyte, isoproterenol-induced adipocytes, FIG. 9, read-out: IC50 for reduction of NBD-FA release): 3000 nM; reduction of NBD-FA release in the presence of inhibitor ([5]; in the presence of 50 μM glimepiride (so in the source), Panels A, B): completely abrogated
N[C@H]1[C@@H](O[C@@H]2[C@@H](O)[C@H](O)[C@@H](O)[C@H]3OP(=O)(O)O[C@H]32)O[C@H](CO)[C@@H](O)[C@@H]1O [glucosamine (α1→6)-inositol-1,2-cyclic phosphate]	better inhibitor than GMI-1-phosphate																	
CCCCCCCCCCCCOP(=O)(O)OC1C(O)C(O)C(O)C(O)C1O (stereo not shown) [myo-inositol-1-O-dodecylphosphate]	inhibit the trypanosomal GPI-PLC																	
Insulin: Human recombinant insulin		35-45%	28 ± 4	7 ± 2	34 ± 8	35 ± 9	19 ± 5	58 ± 12	27 ± 5	4 ± 2	69 ± 8	14 ± 5	29 ± 7	31 ± 6	81 ± 17	64 ± 8	44 ± 7	IC50 ([5]; absence of GPI-2350, read-out: apparent IC50 for inhibition of NBD-FA release): 100 nM; IC50 ([5]; presence of GPI-2350 (50 μM), read-out: apparent IC50 for inhibition of NBD-FA release): 300 nM
